Results reported in patent publication US7671061B2, “Methods and compositions for treating pain” (Hydra Biosciences, Inc., priority 2005, dated 2010).

What was measured:
hNaV1.2 = hNaV1.2 (Homo sapiens, UniProt Q99250); assay: hNaV1.2 patch clamp (Qpatch) selectivity; type: cell-based; conditions: Table 2
hERG = hERG (Homo sapiens, UniProt Q12809); assay: hERG patch clamp (Qpatch) selectivity; conditions: hERG IC50 (nM), Table 2
hTRPA1 = biological target: T1, hTRPA1 (Homo sapiens, UniProt O75762, K186N); assay: High throughput Ca2+ fluorescence (Fluo4) assay, AITC stimulation; type: cell-based; conditions: Table 2; read-out: hTRPA1 Fluor IC50
T1 construct: expressed in transfected cells; host or cells: HEK293/TREx (Invitrogen), induced with tetracycline
Outline: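 Tetracycline-induced HEK293/TREx cells loaded with 1 μM Fluo4/AM for 60 min at room temperature. Compound added for 2 min after a 4-frame baseline, then AITC; fluorescence followed ~3 min.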

hTRPV3 = biological target: T2, hTRPV3 (Homo sapiens, UniProt Q8NET8); assay: hTRPV3 patch clamp selectivity; type: cell-based; conditions: Table 2
T2 sequence (Q8NET8 1-790): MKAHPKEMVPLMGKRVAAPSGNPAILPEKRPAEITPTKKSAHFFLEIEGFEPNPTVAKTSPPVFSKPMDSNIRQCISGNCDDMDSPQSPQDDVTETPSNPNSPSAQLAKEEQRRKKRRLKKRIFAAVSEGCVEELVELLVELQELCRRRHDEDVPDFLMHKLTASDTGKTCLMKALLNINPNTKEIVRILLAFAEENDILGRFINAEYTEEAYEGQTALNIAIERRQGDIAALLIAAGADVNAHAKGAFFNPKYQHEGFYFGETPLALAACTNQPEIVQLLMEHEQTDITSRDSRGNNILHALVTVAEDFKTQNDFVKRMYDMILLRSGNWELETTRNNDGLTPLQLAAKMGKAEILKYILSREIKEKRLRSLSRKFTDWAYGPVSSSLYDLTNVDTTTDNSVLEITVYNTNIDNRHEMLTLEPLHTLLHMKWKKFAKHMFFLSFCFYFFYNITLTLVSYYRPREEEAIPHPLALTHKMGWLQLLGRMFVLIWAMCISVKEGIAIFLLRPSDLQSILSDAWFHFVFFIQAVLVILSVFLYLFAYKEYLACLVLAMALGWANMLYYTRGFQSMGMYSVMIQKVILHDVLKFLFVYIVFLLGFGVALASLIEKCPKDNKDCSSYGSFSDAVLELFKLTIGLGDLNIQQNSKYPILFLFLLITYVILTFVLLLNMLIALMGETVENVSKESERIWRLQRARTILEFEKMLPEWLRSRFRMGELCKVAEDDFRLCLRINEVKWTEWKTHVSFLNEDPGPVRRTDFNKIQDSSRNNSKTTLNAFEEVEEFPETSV

[1] = test system: BOO model of incontinence; conditions: BOO rats, intravesical infusion
From the text: Efficacy of the varying doses of TRPA1 inhibitory compound were compared to controls administered excipients alone (sham control). Efficacy was also compared to rats administered a positive control, such as atropine.
Female Sprague Dawley rats were used in these studies. Rats underwent surgical partial bladder outlet obstruction (BOO) or sham surgery. Five weeks after BOO (or sham) surgery, an intravesical catheter was surgically implanted into the dome of the bladder for conducting urodynamic studies. One week after catheter implantation (6 weeks after BOO or sham), urodynamic studies began. […] An analytic balance beneath the wire-bottom animal cage measured the amount of urine voided during continuous cystometry. […]
For each CMG cycle, the following parameters were assessed: infused volume (the amount of saline or drug infused for each CMG cycle); void volume (the amount of urine voided by the animal for each CMG cycle); minimum pressure (minimum pressure during filling); threshold pressure (pressure prior to micturition when bladder pressure begins to rise steeply); average pressure (average pressure during filling and before threshold); maximum pressure; intermicturition interval (time between two subsequent voiding events); urine flow rate index.

[2] = Plasma levels / pharmacokinetics in male Sprague-Dawley rat; type: in vivo
Experimental: Compound 200 plasma levels were determined via HPLC/MS/MS following a single intravenous bolus dose of 0.9 mg/kg, an intraperitoneal dose of 12 mg/kg (suspension), and an oral dose of 12 mg/kg (suspension) in the male Sprague-Dawley rat. […] For intraperitoneal administration, Compound 200 was formulated as a uniform suspension in CMC (carboxymethylcellulose) at a target concentration of 1 mg/mL and administered at a dose volume of 10 mL/kg. For oral administration, Compound 200 was formulated as a uniform suspension in CMC (carboxymethylcellulose), at a target concentration of 1 mg/mL, administered by gavage, at a dose volume of 10 mL/kg, to the conscious, fasted, male Sprague-Dawley rat.

Stability in rat plasma = type: in vitro ADME; conditions: 37° C.
Experimental: Compound 200 was stable in rat plasma for ≧1 hour at 37° C.

hTRPV4 = hTRPV4 (Homo sapiens, UniProt Q9HBA0); assay: hTRPV4 patch clamp selectivity; type: cell-based; conditions: Table 2
[3] = test system: CFA model of inflammatory pain; assay: CFA model of inflammatory pain
Experimental: FIG. 4 summarizes data obtained following testing of Compound 200 in the CFA model. Naive rats were pretested for sensitivity to a heat stimulus in the Hargreaves apparatus. The next day, 100 μL of complete Freund's adjuvant (CFA) was injected into the plantar surface of the right hindpaw. Two days later, in the morning, the rats were again pretested. In the afternoon, rats were injected with either vehicle control or with drug (TRPA1 inhibitor 200 or the non-steroidal anti-inflammatory diclofenac). Drugs or vehicle were injected intraperitoneally, and 45 minutes later rats were tested for hyperalgesia by applying the heat source to the CFA injected and uninjected hindpaw and measuring latency to withdrawal.

[4] = plasma, male Sprague-Dawley rat, intravenous bolus 0.9 mg/kg

Chain of hTRPV4 (Q9HBA0 whole entry): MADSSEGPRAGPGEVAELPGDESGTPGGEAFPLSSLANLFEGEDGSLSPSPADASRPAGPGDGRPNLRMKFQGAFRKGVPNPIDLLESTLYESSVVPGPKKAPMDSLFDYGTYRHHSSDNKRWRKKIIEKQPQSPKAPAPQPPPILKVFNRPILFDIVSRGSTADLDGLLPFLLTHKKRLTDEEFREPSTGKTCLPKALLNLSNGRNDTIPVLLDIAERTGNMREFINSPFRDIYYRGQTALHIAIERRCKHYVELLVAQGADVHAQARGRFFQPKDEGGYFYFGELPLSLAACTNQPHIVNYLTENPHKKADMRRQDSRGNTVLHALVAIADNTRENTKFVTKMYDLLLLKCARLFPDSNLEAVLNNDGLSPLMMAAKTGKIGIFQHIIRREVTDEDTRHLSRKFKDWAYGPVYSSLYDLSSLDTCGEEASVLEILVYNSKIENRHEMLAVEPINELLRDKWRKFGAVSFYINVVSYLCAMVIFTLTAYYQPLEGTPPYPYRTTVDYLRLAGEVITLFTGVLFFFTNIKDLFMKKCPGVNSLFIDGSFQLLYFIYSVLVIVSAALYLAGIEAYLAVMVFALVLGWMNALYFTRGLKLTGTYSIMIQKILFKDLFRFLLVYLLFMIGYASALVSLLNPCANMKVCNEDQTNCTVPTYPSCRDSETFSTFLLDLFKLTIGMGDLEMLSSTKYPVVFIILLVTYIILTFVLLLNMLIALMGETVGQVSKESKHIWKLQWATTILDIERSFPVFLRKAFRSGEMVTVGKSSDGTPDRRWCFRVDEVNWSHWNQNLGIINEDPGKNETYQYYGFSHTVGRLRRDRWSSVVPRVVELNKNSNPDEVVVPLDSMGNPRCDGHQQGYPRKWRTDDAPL
Chain of hNaV1.2 (Q99250 whole entry): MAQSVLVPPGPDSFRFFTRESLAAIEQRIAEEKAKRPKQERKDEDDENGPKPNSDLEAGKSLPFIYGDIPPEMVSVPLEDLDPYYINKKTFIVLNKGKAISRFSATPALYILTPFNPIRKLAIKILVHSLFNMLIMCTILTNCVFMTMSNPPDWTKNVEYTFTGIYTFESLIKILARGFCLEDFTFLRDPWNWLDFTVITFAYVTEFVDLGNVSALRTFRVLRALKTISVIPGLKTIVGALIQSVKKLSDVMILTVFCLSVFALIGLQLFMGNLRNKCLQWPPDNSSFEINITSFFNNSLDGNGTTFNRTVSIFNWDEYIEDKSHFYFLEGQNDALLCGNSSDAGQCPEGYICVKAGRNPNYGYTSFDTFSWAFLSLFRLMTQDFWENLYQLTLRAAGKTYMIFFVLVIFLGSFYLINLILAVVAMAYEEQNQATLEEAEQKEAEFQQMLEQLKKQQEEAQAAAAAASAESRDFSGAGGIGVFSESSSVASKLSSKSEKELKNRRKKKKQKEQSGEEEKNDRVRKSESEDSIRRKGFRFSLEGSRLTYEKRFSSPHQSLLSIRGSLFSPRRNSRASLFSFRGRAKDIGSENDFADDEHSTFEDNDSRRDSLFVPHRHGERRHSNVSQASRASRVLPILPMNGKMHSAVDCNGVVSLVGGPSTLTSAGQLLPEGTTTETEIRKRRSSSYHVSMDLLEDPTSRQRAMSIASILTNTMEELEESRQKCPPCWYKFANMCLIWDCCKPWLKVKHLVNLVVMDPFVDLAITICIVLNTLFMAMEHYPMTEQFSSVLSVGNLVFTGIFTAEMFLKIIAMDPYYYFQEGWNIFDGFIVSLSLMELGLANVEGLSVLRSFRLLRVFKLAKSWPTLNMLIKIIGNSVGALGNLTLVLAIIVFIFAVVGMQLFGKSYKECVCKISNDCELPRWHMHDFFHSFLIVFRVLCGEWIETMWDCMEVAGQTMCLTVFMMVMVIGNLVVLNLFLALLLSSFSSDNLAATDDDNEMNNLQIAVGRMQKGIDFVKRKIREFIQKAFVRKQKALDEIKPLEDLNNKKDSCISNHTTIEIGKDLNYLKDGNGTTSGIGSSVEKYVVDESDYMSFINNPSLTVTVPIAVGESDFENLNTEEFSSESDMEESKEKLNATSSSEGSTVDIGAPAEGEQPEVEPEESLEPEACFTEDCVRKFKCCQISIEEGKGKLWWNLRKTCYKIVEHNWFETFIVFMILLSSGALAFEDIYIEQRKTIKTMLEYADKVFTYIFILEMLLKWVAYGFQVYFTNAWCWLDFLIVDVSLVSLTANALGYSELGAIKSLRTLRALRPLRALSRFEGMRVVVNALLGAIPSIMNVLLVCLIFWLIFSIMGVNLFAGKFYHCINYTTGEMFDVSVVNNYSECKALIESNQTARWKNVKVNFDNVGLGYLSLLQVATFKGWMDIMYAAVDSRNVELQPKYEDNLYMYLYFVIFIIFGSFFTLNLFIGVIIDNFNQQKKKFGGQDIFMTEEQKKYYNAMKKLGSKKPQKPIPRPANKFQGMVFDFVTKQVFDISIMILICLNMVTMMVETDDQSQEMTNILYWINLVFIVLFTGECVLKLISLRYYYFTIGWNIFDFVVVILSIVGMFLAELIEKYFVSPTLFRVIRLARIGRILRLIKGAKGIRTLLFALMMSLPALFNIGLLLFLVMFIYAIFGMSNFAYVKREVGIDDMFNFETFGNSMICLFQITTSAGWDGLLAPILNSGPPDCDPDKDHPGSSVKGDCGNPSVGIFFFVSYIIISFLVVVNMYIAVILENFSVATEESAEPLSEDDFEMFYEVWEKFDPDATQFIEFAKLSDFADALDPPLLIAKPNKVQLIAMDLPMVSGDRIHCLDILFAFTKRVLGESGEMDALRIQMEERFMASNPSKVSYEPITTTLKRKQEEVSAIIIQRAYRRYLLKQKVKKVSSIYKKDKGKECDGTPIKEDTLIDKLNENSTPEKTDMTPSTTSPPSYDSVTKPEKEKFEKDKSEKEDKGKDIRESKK
T1 sequence (O75762 whole entry K186N): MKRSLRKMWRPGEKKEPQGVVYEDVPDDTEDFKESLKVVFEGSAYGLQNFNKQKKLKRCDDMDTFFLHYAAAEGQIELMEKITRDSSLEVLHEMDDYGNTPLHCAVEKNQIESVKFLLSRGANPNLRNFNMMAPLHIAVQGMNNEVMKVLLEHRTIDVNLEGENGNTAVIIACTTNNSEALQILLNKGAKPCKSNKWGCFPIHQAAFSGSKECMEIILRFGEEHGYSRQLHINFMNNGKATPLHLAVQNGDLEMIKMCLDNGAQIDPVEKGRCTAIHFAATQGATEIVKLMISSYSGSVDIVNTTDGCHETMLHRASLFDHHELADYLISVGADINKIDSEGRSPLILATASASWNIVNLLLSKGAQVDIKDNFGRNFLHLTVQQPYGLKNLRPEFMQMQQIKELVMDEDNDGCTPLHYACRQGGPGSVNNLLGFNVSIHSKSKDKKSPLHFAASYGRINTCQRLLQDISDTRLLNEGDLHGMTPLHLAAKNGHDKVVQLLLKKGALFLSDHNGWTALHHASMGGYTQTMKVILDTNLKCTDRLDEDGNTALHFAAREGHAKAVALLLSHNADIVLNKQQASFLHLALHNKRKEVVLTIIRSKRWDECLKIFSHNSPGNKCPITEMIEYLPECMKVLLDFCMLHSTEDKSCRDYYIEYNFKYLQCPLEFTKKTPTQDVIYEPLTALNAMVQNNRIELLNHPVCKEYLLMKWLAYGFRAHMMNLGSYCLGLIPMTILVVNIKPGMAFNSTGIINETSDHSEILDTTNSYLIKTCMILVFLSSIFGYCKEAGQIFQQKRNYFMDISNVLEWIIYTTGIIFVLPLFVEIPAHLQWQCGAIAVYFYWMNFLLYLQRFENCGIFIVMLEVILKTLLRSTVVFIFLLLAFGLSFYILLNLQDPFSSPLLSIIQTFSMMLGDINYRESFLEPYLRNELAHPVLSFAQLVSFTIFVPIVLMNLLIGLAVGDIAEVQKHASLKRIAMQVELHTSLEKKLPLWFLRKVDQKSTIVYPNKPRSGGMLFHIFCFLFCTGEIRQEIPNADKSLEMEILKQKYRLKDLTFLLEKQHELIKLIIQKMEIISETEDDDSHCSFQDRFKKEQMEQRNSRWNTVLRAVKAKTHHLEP
Chain of hERG (Q12809 whole entry): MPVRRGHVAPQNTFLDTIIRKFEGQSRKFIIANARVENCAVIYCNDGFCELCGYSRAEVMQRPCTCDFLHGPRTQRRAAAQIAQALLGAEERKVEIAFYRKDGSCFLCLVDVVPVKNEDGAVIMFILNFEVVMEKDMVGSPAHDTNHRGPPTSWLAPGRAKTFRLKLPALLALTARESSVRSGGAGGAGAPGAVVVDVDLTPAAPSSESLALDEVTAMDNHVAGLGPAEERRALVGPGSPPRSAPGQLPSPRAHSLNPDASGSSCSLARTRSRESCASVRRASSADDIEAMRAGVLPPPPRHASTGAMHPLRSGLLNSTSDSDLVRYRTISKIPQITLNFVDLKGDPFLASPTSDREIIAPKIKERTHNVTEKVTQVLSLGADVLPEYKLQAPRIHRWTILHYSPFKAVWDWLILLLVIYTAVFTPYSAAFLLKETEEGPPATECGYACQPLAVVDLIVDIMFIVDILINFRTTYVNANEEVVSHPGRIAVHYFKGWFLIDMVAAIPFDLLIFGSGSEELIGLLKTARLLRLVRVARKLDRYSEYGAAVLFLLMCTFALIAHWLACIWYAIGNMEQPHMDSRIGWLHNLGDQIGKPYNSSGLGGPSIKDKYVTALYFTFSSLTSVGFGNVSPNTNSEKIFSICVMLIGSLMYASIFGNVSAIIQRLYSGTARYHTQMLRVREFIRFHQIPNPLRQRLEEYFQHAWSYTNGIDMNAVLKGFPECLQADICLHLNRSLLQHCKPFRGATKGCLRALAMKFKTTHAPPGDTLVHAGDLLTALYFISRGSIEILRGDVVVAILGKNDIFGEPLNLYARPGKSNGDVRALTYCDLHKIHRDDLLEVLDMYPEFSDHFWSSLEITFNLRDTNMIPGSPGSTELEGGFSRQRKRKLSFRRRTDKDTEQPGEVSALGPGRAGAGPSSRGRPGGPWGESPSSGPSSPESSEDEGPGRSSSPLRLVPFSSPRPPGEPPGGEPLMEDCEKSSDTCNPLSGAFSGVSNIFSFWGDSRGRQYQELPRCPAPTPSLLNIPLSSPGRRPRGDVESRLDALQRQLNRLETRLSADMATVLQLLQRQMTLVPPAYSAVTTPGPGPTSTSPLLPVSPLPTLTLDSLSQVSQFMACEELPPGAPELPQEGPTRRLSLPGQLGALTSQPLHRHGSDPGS

## CC(C)c1ccc(NC(=O)Cn2cnc3c2c(=O)n(C)c(=O)n3C)cc1 [Compound 200, 2-(1,3-dimethyl-2,6-dioxo-1,2,3,6-tetrahydropurin-7-yl)-N-(4-isopropylphenyl)acetamide]
hNaV1.2
  selective for TRPA1 over NaV1.2: ≥ 25 fold
hNaV1.2; read-out: hNaV1.2 IC50
  IC50: ≥ 30 µM
hERG
  IC50: ≥ 20000 nM
hTRPA1
  IC50: ≤ 5 µM
hTRPV3
  selective for TRPA1 over TRPV3: ≥ 5 fold
hTRPV3; read-out: hTRPV3 P1 inward IC50
  IC50: > 10 µM
[1]
  maximum bladder pressure: decreased
  threshold bladder pressure: decreased
[2]; male, Sprague-Dawley, plasma, fasted rat, oral suspension 12 mg/kg
  bioavailability: ~8%
[2]; male, Sprague-Dawley, plasma, rat, oral 12 mg/kg, 45 min
  concentration at 45 min: ~355 ng/mL
[2]; [4]
  clearance: 27 mL/min/kg
  half-life: 32 min
[2]; plasma, male Sprague-Dawley rat, intravenous bolus 0.9 mg/kg, read-out: volume of distribution
  Vd: 1.28 L/kg
[2]; rat, intraperitoneal 12 mg/kg, 15-60 min
  plasma levels: ~355 ng/mL
Stability in rat plasma
  stable in rat plasma: ≥ 1 h
hTRPV4
  IC50: > 10 µM
  selective for TRPA1 over TRPV4: ≥ 5 fold
[3]; IP
  efficacy compared with diclofenac: superior to diclofenac
[3]; IP, 45 minutes before test, CFA injected paw
  thermal hyperalgesia: reduced
[3]; rat, in vivo, ip
  toxicity: without toxicity
[3]; uninjected hindpaw
  control paw (uninflamed) sensation: not affected
